These results are taken from patent US9204653B2, “5-fluoro pyrimidine derivatives” (DOW AGROSCIENCES LLC, priority 2008, dated 2015).

Structures are written as SMILES. Where two headings read alike, the source gives them in different places.

This assay deals with Mycosphaerella graminicola; Anamorph: Septoria tritici; Bayer Code SEPTTR. Briefly: Leaf blotch of wheat, foliar fungicide treatment, one day protectant (1DP) or three day curative (3DC). It is filed as in vivo, Septoria tritici on wheat plants (variety Yuma). As to conditions: Zymoseptoria tritici, rating of percent disease control.
The mark [1] stands for this setting: 24 h, one day protectant, read-out: SETTTR 1DP 25 ppm.
The mark [2] stands for this setting: 24 h, one day protectant, read-out: SEPTTR 1DP 100 ppm.
Setting [3] is: 72 h, three day curative, read-out: SEPTTR 3DC 25 ppm.
The mark [4] stands for this setting: 72 h, three day curative, read-out: SEPTTR 3DC 100 ppm.

Consider `Nc1nc(Oc2ccccc2Cl)ncc1F` [Compound 551], for which the pest or weed control at 25 ppm under setting [1] was 0 to 25%. Besides, the pest or weed control at 100 ppm under setting [2] was in the range of 26 to 50%.
With `CCCNC(=S)Nc1nc(OCc2ccc(OC)c(F)c2)ncc1F` [Compound 552], the pest or weed control at 25 ppm was 0 to 25% under setting [1] and 0 to 25% under setting [3]. Moreover, the pest or weed control at 100 ppm reads like this: under setting [2], 76 to 100%; under setting [4], 76 to 100%.
As to `CCOC(=O)C(=O)Nc1nc(OCc2ccc(C)cc2)ncc1F` [Compound 553], the pest or weed control at 25 ppm is, setting by setting: under setting [1], 76 to 100%; under setting [3], 76 to 100%. Moreover, the pest or weed control at 100 ppm is, setting by setting: under setting [2], 76 to 100%; under setting [4], 76 to 100%.
Consider `N#Cc1cccc(COc2ncc(F)c(NC(=O)Nc3ccccc3)n2)c1` [Compound 555], for which the pest or weed control at 25 ppm lay in the range of 0 to 25% under setting [1] and 0 to 25% under setting [3]. Also, the pest or weed control at 100 ppm lay in the range of 0 to 25% under setting [2] and 0 to 25% under setting [4].
Regarding `COc1cccc(COc2ncc(F)c(N/N=C\c3ncc[nH]3)n2)c1` [Compound 557], the pest or weed control at 25 ppm is, setting by setting: under setting [1], 26 to 50%; under setting [3], 0 to 25%. The pest or weed control at 100 ppm by setting is: under setting [2], 0 to 25%; under setting [4], 0 to 25%.
In the case of `O=[N+]([O-])c1ccccc1SNc1nc(OCc2ccccc2)ncc1F` [Compound 558], the pest or weed control at 25 ppm by setting is: under setting [1], 76 to 100%; under setting [3], 26 to 50%. Moreover, the pest or weed control at 100 ppm fell in the range of 76 to 100% under setting [2] and 26 to 50% under setting [4].
As to `CC#CCOc1ncc(F)c(NCO)n1` [Compound 559], the pest or weed control at 25 ppm runs as follows: under setting [1], 51 to 75%; under setting [3], 76 to 100%. The pest or weed control at 100 ppm by setting is: under setting [2], 76 to 100%; under setting [4], 76 to 100%.
Consider `CC[Si](CC)(CC)Nc1nc(OCc2ccc(C)cc2)ncc1F` [Compound 561], for which the pest or weed control at 25 ppm runs as follows: under setting [1], 76 to 100%; under setting [3], 76 to 100%. Besides, the pest or weed control at 100 ppm was in the range of 76 to 100% under setting [2] and 76 to 100% under setting [4].
Take `COc1cccc(COc2ncc(F)c(NN3CCCCC3)n2)c1` [Compound 562]: the pest or weed control at 25 ppm lay within 0 to 25% under setting [1] and 0 to 25% under setting [3]. Moreover, the pest or weed control at 100 ppm lay within 0 to 25% under setting [2] and 26 to 50% under setting [4].
Regarding `Cc1cc(C)cc(COc2ncc(F)c(N)n2)c1` [Compound 564], the pest or weed control at 25 ppm under setting [1] fell in the range of 51 to 75% and the pest or weed control at 25 ppm under setting [3] lay within 26 to 50%. For the same compound, the pest or weed control at 100 ppm lay in the range of 76 to 100% under setting [2] and 76 to 100% under setting [4].
For `CCCNC(=O)Nc1nc(OCc2cccc(F)c2)ncc1F` [Compound 566], the pest or weed control at 25 ppm reads like this: under setting [1], 0 to 25%; under setting [3], 0 to 25%. The pest or weed control at 100 ppm runs as follows: under setting [2], 0 to 25%; under setting [4], 0 to 25%.
Regarding `CCCNC(=S)Nc1nc(OCc2cccc(F)c2)ncc1F` [Compound 568], the pest or weed control at 25 ppm under setting [1] fell in the range of 51 to 75% and the pest or weed control at 25 ppm under setting [3] is 76 to 100%. Further, the pest or weed control at 100 ppm was in the range of 76 to 100% under setting [2] and 76 to 100% under setting [4].
With `COc1ccccc1COc1ncc(F)c(NCO)n1` [Compound 571], the pest or weed control at 25 ppm by setting is: under setting [1], 76 to 100%; under setting [3], 76 to 100%. Also, the pest or weed control at 100 ppm reads like this: under setting [2], 76 to 100%; under setting [4], 76 to 100%.
With `Fc1ccc(COc2ncc(F)c(NC(=S)NCc3ccccc3F)n2)cc1` [Compound 572], the pest or weed control at 25 ppm was in the range of 26 to 50% under setting [1] and 26 to 50% under setting [3]. Moreover, the pest or weed control at 100 ppm by setting is: under setting [2], 76 to 100%; under setting [4], 51 to 75%.
Consider `COc1ccc(Oc2ncc(F)c(N)n2)cc1` [Compound 573], for which the pest or weed control at 25 ppm was 26 to 50% under setting [1] and 0 to 25% under setting [3]. Besides, the pest or weed control at 100 ppm lay within 51 to 75% under setting [2] and 0 to 25% under setting [4].
Turning to `Nc1nc(OCc2ccc(Cl)c(Cl)c2)ncc1F` [Compound 574], the pest or weed control at 25 ppm lay within 76 to 100% under setting [1] and 76 to 100% under setting [3]. The pest or weed control at 100 ppm under setting [2] lay in the range of 76 to 100% and the pest or weed control at 100 ppm under setting [4] lay within 76 to 100%.
Consider `CC(Oc1ncc(F)c(N)n1)c1cccc([N+](=O)[O-])c1` (centres unmarked) [Compound 576], for which the pest or weed control at 25 ppm fell in the range of 26 to 50% under setting [1] and 26 to 50% under setting [3]. Further, the pest or weed control at 100 ppm fell in the range of 76 to 100% under setting [2] and 76 to 100% under setting [4].
In the case of `Cc1csc(COc2ncc(F)c(N)n2)c1` [Compound 577], the pest or weed control at 25 ppm by setting is: under setting [1], 76 to 100%; under setting [3], 76 to 100%. The pest or weed control at 100 ppm is, setting by setting: under setting [2], 76 to 100%; under setting [4], 76 to 100%.
Turning to `Nc1nc(OCc2cc3cccnc3s2)ncc1F` [Compound 578], the pest or weed control at 25 ppm fell in the range of 76 to 100% under setting [1] and 76 to 100% under setting [3]. The pest or weed control at 100 ppm reads like this: under setting [2], 76 to 100%; under setting [4], 76 to 100%.
With `Nc1nc(OCc2cccnc2Cl)ncc1F` [Compound 580], the pest or weed control at 25 ppm runs as follows: under setting [1], 51 to 75%; under setting [3], 0 to 25%. In addition, the pest or weed control at 100 ppm runs as follows: under setting [2], 76 to 100%; under setting [4], 51 to 75%.
As to `COc1cc(COc2ncc(F)c(N)n2)ccc1F` [Compound 581], the pest or weed control at 25 ppm reads like this: under setting [1], 76 to 100%; under setting [3], 76 to 100%. Besides, the pest or weed control at 100 ppm reads like this: under setting [2], 76 to 100%; under setting [4], 76 to 100%.
As for `Nc1nc(OCCNc2ccccc2)ncc1F` [Compound 583], the pest or weed control at 25 ppm under setting [1] fell in the range of 0 to 25% and the pest or weed control at 25 ppm under setting [3] is 76 to 100%. Also, the pest or weed control at 100 ppm under setting [2] was 76 to 100% and the pest or weed control at 100 ppm under setting [4] was in the range of 76 to 100%.
Take `CN(C)/C=N/c1nc(OC(=O)c2ccc(Cl)cc2)ncc1F` [Compound 585]: the pest or weed control at 25 ppm was in the range of 76 to 100% under setting [1] and 76 to 100% under setting [3]. For the same compound, the pest or weed control at 100 ppm runs as follows: under setting [2], 76 to 100%; under setting [4], 76 to 100%.
`COc1cccc(COc2ncc(F)c(N3CCOCC3)n2)c1` [Compound 586]: the pest or weed control at 25 ppm reads like this: under setting [1], 0 to 25%; under setting [3], 0 to 25%. The pest or weed control at 100 ppm was 0 to 25% under setting [2] and 0 to 25% under setting [4].
With `O=C(Nc1ccsc1)Nc1nc(OCc2ccc(F)cc2)ncc1F` [Compound 587], the pest or weed control at 25 ppm runs as follows: under setting [1], 0 to 25%; under setting [3], 26 to 50%. For the same compound, the pest or weed control at 100 ppm by setting is: under setting [2], 0 to 25%; under setting [4], 76 to 100%.
With `CNc1nc(OCc2ccc(OC)c(OC)c2)ncc1F` [Compound 589], the pest or weed control at 25 ppm lay within 0 to 25% under setting [1] and 0 to 25% under setting [3]. Moreover, the pest or weed control at 100 ppm fell in the range of 0 to 25% under setting [2] and 0 to 25% under setting [4].
In the case of `COc1ccc(COc2ncc(F)c(N)n2)cc1F` [Compound 590], the pest or weed control at 25 ppm is, setting by setting: under setting [1], 76 to 100%; under setting [3], 76 to 100%. Moreover, the pest or weed control at 100 ppm lay in the range of 76 to 100% under setting [2] and 76 to 100% under setting [4].
For the compound `Cc1cc(C)cc(C(C)Oc2ncc(F)c(N)n2)c1` (centres unmarked) [Compound 592], the pest or weed control at 25 ppm by setting is: under setting [1], 76 to 100%; under setting [3], 76 to 100%. For the same compound, the pest or weed control at 100 ppm is, setting by setting: under setting [2], 76 to 100%; under setting [4], 76 to 100%.
Turning to `COc1cccc(COc2ncc(F)c(NOCc3ccccc3)n2)c1` [Compound 594], the pest or weed control at 25 ppm under setting [1] is 0 to 25% and the pest or weed control at 25 ppm under setting [3] was 0 to 25%. The pest or weed control at 100 ppm by setting is: under setting [2], 51 to 75%; under setting [4], 26 to 50%.
On to `Cn1ccc(COc2ncc(F)c(NC(=S)NCc3ccccc3F)n2)n1` [Compound 595], for which the pest or weed control at 25 ppm was 26 to 50% under setting [1] and 0 to 25% under setting [3]. The pest or weed control at 100 ppm reads like this: under setting [2], 76 to 100%; under setting [4], 0 to 25%.
For `Nc1nc(OCc2ccc(OC(F)(F)F)cc2)ncc1F` [Compound 596], the pest or weed control at 25 ppm is, setting by setting: under setting [1], 76 to 100%; under setting [3], 76 to 100%. In addition, the pest or weed control at 100 ppm is, setting by setting: under setting [2], 76 to 100%; under setting [4], 76 to 100%.
In the case of `Cc1cc(C(C)Oc2ncc(F)c(N)n2)ccc1Cl` (centres unmarked) [Compound 597], the pest or weed control at 25 ppm under setting [1] fell in the range of 76 to 100% and the pest or weed control at 25 ppm under setting [3] is 76 to 100%. Also, the pest or weed control at 100 ppm by setting is: under setting [2], 76 to 100%; under setting [4], 76 to 100%.
Consider `CC[Si](CC)(CC)Nc1nc(OCc2cccc(C#N)c2)ncc1F` [Compound 599], for which the pest or weed control at 25 ppm under setting [1] lay in the range of 51 to 75% and the pest or weed control at 25 ppm under setting [3] is 76 to 100%. In addition, the pest or weed control at 100 ppm is, setting by setting: under setting [2], 76 to 100%; under setting [4], 76 to 100%.
As to `CCOCNc1nc(OCc2cccc(OC)c2)ncc1F` [Compound 601], the pest or weed control at 25 ppm lay within 76 to 100% under setting [1] and 76 to 100% under setting [3]. In addition, the pest or weed control at 100 ppm under setting [2] is 76 to 100% and the pest or weed control at 100 ppm under setting [4] is 76 to 100%.
As for `Cc1cccc(COc2ncc(F)c(N)n2)c1C` [Compound 602], the pest or weed control at 25 ppm reads like this: under setting [1], 0 to 25%; under setting [3], 0 to 25%. Besides, the pest or weed control at 100 ppm under setting [2] fell in the range of 51 to 75% and the pest or weed control at 100 ppm under setting [4] fell in the range of 0 to 25%.
As for `COc1cccc(COc2ncc(F)c(N/N=C/c3nc(C)cs3)n2)c1` [Compound 603], the pest or weed control at 25 ppm is, setting by setting: under setting [1], 26 to 50%; under setting [3], 0 to 25%. Further, the pest or weed control at 100 ppm by setting is: under setting [2], 76 to 100%; under setting [4], 0 to 25%.
In the case of `Nc1nc(OCc2ccccc2Br)ncc1F` [Compound 604], the pest or weed control at 25 ppm under setting [1] lay in the range of 76 to 100% and the pest or weed control at 25 ppm under setting [3] fell in the range of 76 to 100%. Further, the pest or weed control at 100 ppm runs as follows: under setting [2], 76 to 100%; under setting [4], 76 to 100%.
